In patent US20140296354A1, “SYNTHESIS OF PEPTOID-BASED SMALL MOLECULAR GELATORS FROM MULTIPLE COMPONENT REACTIONS” (OLD DOMINION UNIVERSITY RESEARCH FOUNDATION, priority 2013, published 2014):

Assays:
Gel melting temperatures = assay type: physicochemical; conditions: gel in DMSO:H2O (1:2) at its minimum gelation concentration
Protocol: Melting points were measured for compounds that were gelators in the DMSO:H2O (1:2) solvent system. In general, a compound was dissolved in heated solvent in a small vial at its minimum gelation concentration and transferred into a tube (e.g., an NMR tube) while the mixture was still warm. The tube was sonicated and cooled until a stable gel formed. The tube was immersed in an oil bath and the temperature of the solid-to-liquid phase transition was monitored using a thermometer as the oil bath temperature was changed. Gel melting temperatures are presented in […]

[1] = Gelation test in solvents at room temperature; assay type: physicochemical; design: key to Gelation test result: I, insoluble; P, precipitating; S, soluble at ~20 mg/mL; G, gel at room temperature; number is minimum gelation concentration; conditions: for Gelation test result / minimum gelation concentration: room temperature; for MGC in DMSO:H2O (1:2): Table 2
Protocol: Gelation tests were performed by adding incremental amounts of compounds to a solvent or solvent system at room temperature and observing the results (i.e., gel formation, solubility of compounds, insolubility of compounds, or formation of a precipitate). […] The term “precipation” means that the compound dissolves upon heating and sonicating, however, it crashes out of solution when the heat is removed.
After the compounds were synthesized, they were screened for gelation properties. […] For the compounds with new chiral centers, they formed gels in aqueous environment preferentially.

[2] = Optical micrographs of gels (morphology); assay type: physicochemical; conditions: for morphology of the gel: optical micrographs, FIG. 3
Text: Solvent for 1(a-d) is DMSO:H2O (1:2); solvent for 1(e-f) is EtOH:H2O (1:2).
The EtOH/H2O gel has shown more uniform fibrous structures with an average diameter of 0.5 μm and over 300 μm in length (FIG. 3e, f).

Structure (SMILES) | T1, temperature at which gel begins to melt (Gel melting temperatures) [°C] | T2, temperature at which gel is approximately half melted (Gel melting temperatures) [°C] | T3, temperature at which gel is fully melted (Gel melting temperatures) [°C] | gelation efficiency (in words) [1] | Gelation test result ([1]; DMSO:H2O (1:1)) | minimum gelation concentration ([1]; DMSO:H2O (1:1)) [mg/mL] | Gelation test result ([1]; DMSO:H2O (1:2)) | minimum gelation concentration ([1]; DMSO:H2O (1:2)) [mg/mL] | MGC in DMSO:H2O (1:2) ([1]; DMSO:H2O (1:2)) [mg/mL] | Gelation test result ([1]; EtOH) | minimum gelation concentration ([1]; EtOH) [mg/mL] | Gelation test result ([1]; EtOH:H2O (1:1)) | minimum gelation concentration ([1]; EtOH:H2O (1:1)) [mg/mL] | Gelation test result ([1]; EtOH:H2O (1:2)) | minimum gelation concentration ([1]; EtOH:H2O (1:2)) [mg/mL] | Gelation test result ([1]; H2O) | Gelation test result ([1]; Hexane) | morphology of the gel [2] | melting point [°C] | further results
CCOC(=O)CNC(=O)CN(Cc1ccc(OC)cc1)C(=O)c1ccc(Br)cc1 [Compound 21, Ethyl 2-(2-(N-(4-methoxybenzyl)-4-bromobenzamido)acetamido)acetate] | 70 | 75 | 81 | most efficient gelator identified in this study | G | 2.5 | G | 2.0 | 2.0 | G | 20.0 | G | 5.0 | G | 2.8 | S (S, soluble at ~20 mg/mL) | I | very long and uniform fibrous assemblies | 123 to 125 | average diameter of fibrous structures ([2]; EtOH/H2O gel): 0.5 μm; length of fibrous structures ([2]; EtOH/H2O gel): over 300 μm
O=C(CN(Cc1ccccc1)C(=O)c1ccc([N+](=O)[O-])cc1)NC1CCCCC1 [Compound 18, N-benzyl-N-(2-(cyclohexylamino)-2-oxoethyl)-4-nitrobenzamide] | 91 | 95 | 110 | not a very efficient gelator | G | 20.0 | G | 10.0 | 10.0 | P |  | G | 20.0 | P |  | P | I | rod or sheet like feature | 190 to 192 | concentration at which gel formed ([1]; DMSO aqueous mixture): 2 wt %
COc1ccc(CN(CC(=O)NC2CCCCC2)C(=O)c2ccc(Br)cc2)cc1 [Compound 20, N-(4-methoxybenzyl)-4-bromo-N-(2-(cyclohexylamino)-2-oxoethyl)benzamide] | 91 | 110 | 120 |  | G | 5.0 | G | 6.6 | 6.6 | P |  | G | 10.0 | P |  | P | P |  | 174 to 176 | 
COC1OC2COC(c3ccccc3)OC2C(O)C1N(CC(=O)NC1CCCCC1)C(=O)c1ccc(Br)cc1 (stereo not drawn) [Compound 25, 4-Bromo-N-(2-(cyclohexylamino)-2-oxoethyl)-N-(8-hydroxy-6-methoxy-2-phenyl-hexahydropyrano[3,2-d][1,3]dioxin-7-yl)benzamide] |  |  |  |  | G | 20.0 | P |  |  | G | 20.0 | G | 20.0 | G | 20.0 | I | P |  | 291 to 293 | 
CCOC(=O)CNC(=O)CN(C(=O)c1ccc(Br)cc1)C1C(OC)OC2COC(c3ccccc3)OC2C1O (stereo not drawn) [Compound 26, Ethyl-2-(2-(4-bromo-N-(8-hydroxy-6-methoxy-2-phenyl-hexahydropyrano[3,2-d][1,3]dioxin-7-yl)benzamido)acetamido)acetate] | 110 | 118 | 128 | more efficient gelator | G | 10.0 | G | 6.6 | 6.6 | I |  | G | 20.0 | G | 10.0 | P | I | thinner fibrous assembly | 207 to 209 | concentration at which gel formed ([1]; DMSO/H2O (1:2)): 0.66 wt %
CCOC(=O)CNC(=O)CN(Cc1ccc(OC)cc1)C(=O)c1ccccc1 [Compound 23, Ethyl 2-(2-(N-(4-methoxybenzyl)benzamido)acetamido)acetate] | 50 | 52 | 58 |  | P |  | G | 20.0 | 20.0 | S (S, soluble at ~20 mg/mL) |  | P |  | P |  | S (S, soluble at ~20 mg/mL) | I |  | 94 to 96 | 
C#CCCC(=O)N(CC(=O)NC1CCCCC1)Cc1ccccc1 [Compound 15, N-benzyl-N-(2-(cyclohexylamino)-2-oxoethyl)pent-4-ynamide] | 95 | 100 | 110 |  | G | 20.0 | G | 20.0 | 20.0 | P |  | P |  | G | 20.0 | S (S, soluble at ~20 mg/mL) | P^(b) |  | 138 to 140 | 
C[C@H](c1ccccc1)N(CC(=O)NC1CCCCC1)C(=O)c1ccc(Br)cc1 [Compound 19, (R)-4-bromo-N-(2-(cyclohexylamino)-2-oxoethyl)-N-(1-phenylethyl)benzamide] |  |  |  |  | G | 20.0 | P |  |  | S (S, soluble at ~20 mg/mL) |  | P |  | P |  | P | S^(c) (S, soluble at ~20 mg/mL) |  | 140 to 142 | 
O=C(CN(Cc1ccccc1)C(=O)c1ccc(Br)cc1)NC1CCCCC1 [Compound 17, N-benzyl-4-bromo-N-(2-(cyclohexylamino)-2-oxoethyl)benzamide] | 78 | 80 | 90 |  | G | 10.0 | G | 5.0 | 5.0 | S (S, soluble at ~20 mg/mL) |  | G | 20.0 | P |  | P | I |  | 168 to 170 | 
COC1OC2COC(c3ccccc3)OC2C(O)C1N(CC(=O)NC1CCCCC1)C(=O)c1ccccc1 (stereo not drawn) [Compound 24, N-(2-(cyclohexylamino)-2-oxoethyl)-N-(8-hydroxy-6-methoxy-2-phenyl-hexahydropyrano[3,2-d][1,3]dioxin-7-yl)benzamide] |  |  |  |  | P |  | P |  |  | G | 20.0 | P |  | G | 20.0 | I | P |  | 261 to 263 | 
